# Columns and labels:
# Experiment in all cases: Cell proliferation assay
# Assay type in all cases: cell-based, Homo sapiens
# NCI-H1581 = conditions: NCI-H1581, lung, NSCLC, 72 hours
# Protocol: (§1) To quantify cell proliferation, either the nuclei of live cells were counted following staining with 4’,6-diamidino-2-phenylindole (DAPI; Sigma-Aldrich, Burlington, MA, USA), or metabolically active cells were detected using a CellTiter-Glo assay (Promega Corporation, Madison, WI, USA). Cells from a range of human and mammalian tumor cell lines (American Type Culture Collection, Manassas, VA, USA) were seeded at 4000 cells per well in 100 μL of culture medium in a 96-well plate and incubated overnight at 37°C with 5% CO2. […] In the DAPI staining method, cells were washed using 1× phosphate-buffered saline (PBS; Gibco Thermo Fisher Scientific, Waltham, MA, USA), fixed with 4% formaldehyde, permeabilized with 0.2% Triton X-100 (Sigma-Aldrich), washed again, and stained with 1 μg/mL DAPI to visualize cell nuclei. Cells were washed with 1× PBS three times, and 100 μL 1× PBS was added to each well. Plates were scanned using an IN Cell Analyzer 2200 (GE Healthcare Life Sciences, Chicago, IL, USA) and the number of cells per well was recorded. In the CellTiter-Glo assay, 60 μL of CellTiter-Glo luminescent solution was added to each well after incubation with the test compounds, and the assay plate was scanned using a Tecan Infinite M1000 PRO microplate reader (Tecan Group AG, Männedorf, Switzerland) to record luminescent signals.
# HCT15 = conditions: HCT15, colorectal carcinoma, 72 hours
# Protocol: as §1
# T47D = conditions: breast carcinoma, 72 hours
# Protocol: as §1
# MDA-MB-231 = conditions: MDA-MB-231, breast carcinoma, 72 hours
# Protocol: as §1
# LS174T = conditions: colon carcinoma, 72 hours
# Protocol: as §1
# SNU-761 = conditions: SNU-761, lung carcinoma, 72 hours
# Protocol: as §1
# SW948 = conditions: SW948, colon carcinoma, 72 hours
# Protocol: as §1
# U87/DK = conditions: brain, glioblastoma, 72 hours
# Protocol: as §1
# BEL7405 = conditions: BEL7405, liver, hepatocellular carcinoma, 72 hours
# Protocol: as §1
# Daoy = conditions: brain, desmoplastic cerebellar medulloblastoma, 72 hours
# Protocol: as §1
# NCI-H1792 = conditions: NCI-H1792, lung carcinoma, 72 hours
# Protocol: as §1
# LN229 = conditions: LN229, brain, glioblastoma, 72 hours
# Protocol: as §1
# SNU-886 = conditions: SNU-886, liver, hepatocellular carcinoma, 72 hours
# Protocol: as §1
# Huh-7 = conditions: Huh-7, liver, hepatocellular carcinoma, 72 hours
# Protocol: as §1
# SNU-475 = conditions: SNU-475, liver, hepatocellular carcinoma, 72 hours
# Protocol: as §1
# HCC827 = conditions: HCC827, lung carcinoma, 72 hours
# Protocol: as §1
# MHCC97 = conditions: MHCC97, liver, hepatocellular carcinoma, 72 hours
# Protocol: as §1
# SNU-449 = conditions: SNU-449, liver, hepatocellular carcinoma, 72 hours
# Protocol: as §1
# SK-N-SH = conditions: brain, neuroblastoma, 72 hours
# Protocol: as §1
# NCI-H1915 = conditions: NCI-H1915, lung, NSCLC, 72 hours
# Protocol: as §1
# HLF = conditions: lung, epidermoid carcinoma, 72 hours
# Protocol: as §1
# COLO 205 = conditions: COLO 205, colon carcinoma, 72 hours
# Protocol: as §1
# NCI-H460 = conditions: NCI-H460, lung carcinoma, 72 hours
# Protocol: as §1
# CHP-212 = conditions: CHP-212, brain, neuroblastoma, 72 hours
# Protocol: as §1
# SNU-182 = conditions: SNU-182, liver, hepatocellular carcinoma, 72 hours
# Protocol: as §1
# SK-N-BE(2) = conditions: neuroblastoma, 72 hours
# Protocol: as §1
# SK-N-AS = conditions: brain, neuroblastoma, 72 hours
# Protocol: as §1
# U118-MG = conditions: brain, glioblastoma, 72 hours
# Protocol: as §1
# MCF-7 = conditions: MCF-7, breast carcinoma, 72 hours
# Protocol: as §1
# NCI-H1975 = conditions: NCI-H1975, lung, NSCLC, 72 hours
# Protocol: as §1
# NCI-H2228 = conditions: NCI-H2228, lung, NSCLC, 72 hours
# Protocol: as §1
# A172 = conditions: A172, brain, glioblastoma, 72 hours
# Protocol: as §1
# SNU-368 = conditions: SNU-368, liver, hepatocellular carcinoma, 72 hours
# Protocol: as §1
# HCT8 = conditions: HCT8, colorectal carcinoma, 72 hours
# Protocol: as §1
# Li-7 = conditions: Li-7, liver, hepatocellular carcinoma, 72 hours
# Protocol: as §1
smiles,measurement,setting,value
"CCN1CCN(Cc2ccc(Nc3ncc(F)c(-c4cc(F)c5nc(C)n(C(C)C)c5c4)n3)nc2)CC1 [Abemaciclib, abemaciclib, reference compound]",IC50,NCI-H1581; Homo sapiens,3230 nM
same,IC50,"HCT15; Homo sapiens, HCT-15",294 nM
same,IC50,T47D; Homo sapiens,12 nM
same,IC50,MDA-MB-231; Homo sapiens,48 nM
same,IC50,LS174T; Homo sapiens,96 nM
same,IC50,SNU-761; Homo sapiens,54 nM
same,IC50,SW948; Homo sapiens,586 nM
same,IC50,U87/DK; Homo sapiens,15 nM
same,IC50,BEL7405; Homo sapiens,2140 nM
same,IC50,Daoy; Homo sapiens,> 10000 nM
same,IC50,NCI-H1792; Homo sapiens,23 nM
same,IC50,"LN229; Homo sapiens, LN-229",35 nM
same,IC50,SNU-886; Homo sapiens,25 nM
same,IC50,Huh-7; Homo sapiens,75 nM
same,IC50,SNU-475; Homo sapiens,195 nM
same,IC50,HCC827; Homo sapiens,16 nM
same,IC50,MHCC97; Homo sapiens,1100 nM
same,IC50,SNU-449; Homo sapiens,159 nM
same,IC50,SK-N-SH; Homo sapiens,80 nM
same,IC50,NCI-H1915; Homo sapiens,324 nM
same,IC50,HLF; Homo sapiens,4950 nM
same,IC50,COLO 205; Homo sapiens,432 nM
same,IC50,NCI-H460; Homo sapiens,654 nM
same,IC50,CHP-212; Homo sapiens,32 nM
same,IC50,SNU-182; Homo sapiens,> 10000 nM
same,IC50,"SK-N-BE(2); Homo sapiens, SKNBE2, brain",133 nM
same,IC50,SK-N-AS; Homo sapiens,138 nM
same,IC50,"U118-MG; Homo sapiens, U-118-MG",86 nM
same,IC50,"MCF-7; Homo sapiens, MCF7",6 nM
same,IC50,NCI-H1975; Homo sapiens,112 nM
same,IC50,NCI-H2228; Homo sapiens,2070 nM
same,IC50,"A172; Homo sapiens, A 172",112 nM
same,IC50,SNU-368; Homo sapiens,34 nM
same,IC50,"HCT8; Homo sapiens, HCT-8",384 nM
same,IC50,Li-7; Homo sapiens,6290 nM
CC1=Nc2c(F)cc(-c3nc(Nc4ccc(C5CCN(C)CC5)cn4)ncc3F)cc2C12CCCC2 [GLR2007],IC50,NCI-H1581,1120 nM
same,IC50,HCT15,43 nM
same,IC50,T47D,1 nM
same,IC50,MDA-MB-231,44 nM
same,IC50,LS174T,160 nM
same,IC50,SNU-761,8 nM
same,IC50,SW948,189 nM
same,IC50,U87/DK,3 nM
same,IC50,BEL7405,1150 nM
same,IC50,Daoy,3960 nM
same,IC50,NCI-H1792,3 nM
same,IC50,LN229,17 nM
same,IC50,SNU-886,6 nM
same,IC50,Huh-7,43 nM
same,IC50,SNU-475,85 nM
same,IC50,HCC827,15 nM
same,IC50,MHCC97,353 nM
same,IC50,SNU-449,67 nM
same,IC50,SK-N-SH,32 nM
same,IC50,NCI-H1915,53 nM
same,IC50,HLF,2010 nM
same,IC50,COLO 205,194 nM
same,IC50,NCI-H460,235 nM
same,IC50,CHP-212,18 nM
same,IC50,SNU-182,2240 nM
same,IC50,SK-N-BE(2); brain,130 nM
same,IC50,SK-N-AS,66 nM
same,IC50,U118-MG,23 nM
same,IC50,MCF-7,2 nM
same,IC50,NCI-H1975,10 nM
same,IC50,NCI-H2228,2050 nM
same,IC50,A172,41 nM
same,IC50,SNU-368,13 nM
same,IC50,HCT8,81 nM
same,IC50,Li-7,712 nM
